Source: article PMC8347148, “An Evaluation of Human Induced Pluripotent Stem Cells to Test for Cardiac Developmental Toxicity” (International Journal of Molecular Sciences, 2021)
Converted amounts (≈) assume the structure as drawn. Like-named read-outs stand apart in the source and are kept apart here.

What was measured:
3T3 fibroblast cells = tested on: 3T3 fibroblast cells; parameters: method as in PMID 14761682; conditions: mESC-EST, 3T3 viability; previously obtained in the authors' lab; cited from earlier work
MEF2c mRNA expression = experiment: day 10 qPCR of MEF2c in differentiating hiPSCs; type: cell-based, human
From the text: (§1) One of the main critiques of traditional developmental toxicity evaluations is the length of time and technical training required to successfully complete assays. As such, a shorter, quantifiable, and correct in vitro embryotoxicity assessment could improve throughput without sacrificing accuracy. Given the correct predictions achieved with contraction counts described above, we next investigated if our approach could be modified with a shorter, qPCR-based endpoint to determine differentiation inhibition. Here, we selected two cardiogenesis-specific transcription factors, TBX5 and MEF2c, to determine if the adverse differentiation outcomes would already be detectable as changes in TBX5 and MEF2c expression on day 10 of differentiation.
(§2) RNA was extracted from three wells per biological replicate using the protocol from NucleoSpin RNA II kit (Macherey-Nagel, Mountain View, CA, USA) and pooled. RNA from three independent differentiations was then quantified using a NanoDrop® 1000 spectrophotometer (ThermoFisher Scientific, Grand Island, NY, USA) at 260 nm. 25 ng of total RNA was used as a template for cDNA synthesis with a mastermix including 5 µL 5× reaction buffer, 1.25 µL 10 mM dNTPs, 1.25 µL 400 U/µL RNase inhibitor, 0.1 µL 200 U/µL reverse transcriptase, 0.1 µL 3 µg/µL random primer, and 1.5 µL DEPC H2O for a total of 25 µL per reaction. 25 ng cDNA transcripts were used for quantitative polymerase chain reaction (qPCR) SYBR green technology on the MyiQ cycler (Bio-Rad). The reactions were setup for 10 min of denaturing at 94 °C (initial), followed by 40 cycles of denaturing at 94 °C, and annealing at 60 °C each 45 s. The n-fold expression in target samples was calculated with the ΔΔCT method by standardizing Ct values to GAPDH expression. Primer sequences for human GAPDH were 5′-[…]-3′ and 5′-[…]-3′. Target genes were cardiogenic markers TBX5 and MEF2c. Primer sequences for human TBX5 were 5′-[…]-3′ and 5′-[…]-3′ and primer sequences for human MEF2c were 5′-[…]-3′ and 5′-[…]-3′ [27].
(§3) Half-maximal inhibitory compound doses of differentiation (ID50) and cytotoxicity (IC50) were determined from concentration-response curves using GraphPad Prism.

mESCs [1] = tested on: mESCs; parameters: method as in PMID 14761682; conditions: mESC-EST, inhibition of differentiation; previously obtained in the authors' lab; cited from earlier work
mESCs [2] = tested on: mESCs; parameters: method as in PMID 14761682, PMID 21720311; conditions: EST prediction model; cited from earlier work
mESCs [3] = tested on: mESCs; parameters: method as in PMID 14761682; conditions: mESC-EST, cell viability; previously obtained in the authors' lab; cited from earlier work
TBX5 mRNA expression = experiment: day 10 qPCR of TBX5 in differentiating hiPSCs; type: cell-based, human; conditions: for hiPSCs (d10 TBX5) ID50: day 10, 50% reduction in TBX5 gene expression vs control
From the text: as §1, §2, §3

hiPSC = experiment: hiPSC-EST biostatistical prediction model; parameters: species or system human; conditions: for hiPSC (day 25 cluster) Biostatistical Embryotoxicity Classification: EST prediction model with contractile ID50, hiPSC IC50 and hFF IC50; for hiPSC (day 10 qPCR) Biostatistical Embryotoxicity Classification: EST prediction model with d10 TBX5 ID50
From the text: The prediction model uses a series of equations to perform a linear discriminant analysis using determined IC50 and ID50 values determined from dose–response curves. […] Importantly, half-maximal concentrations found for 5-FU and atRA were decades lower than the maximum plasma concentration (Cmax) achieved during human exposure underscoring the strong potential of these two compounds to elicit embryotoxic outcomes in vivo.
To compare the efficacy of qPCR-based embryotoxicity classifications versus contractile assay-based classifications, the ID50 values generated from 5-FU and atRA TBX5 mRNA dose–response curves were compared against the ID50 values from the contractile assay curves in the EST biostatistical model.

[4] = tested on: human foreskin fibroblasts (hFF); experiment: hFF viability screen (MTT); type: cell-based; conditions: for IC50: Homo sapiens, Fibroblast; for concentrations with reductions in hFF cell viability: Figure 4B
Procedure: Human foreskin fibroblasts (hFF) were gifted from Dr. Derrick Rancourt (University of Calgary). hFFs were seeded onto 0.1% gelatin-coated tissue culture plates and maintained in Dulbecco’s modification of Eagle’s medium (DMEM with 4.5 g/L glucose, L-glutamine and sodium pyruvate; Corning cellgro) supplemented with 10% FBS (Atlanta Biologicals, Flower Branch, GA, USA) and 0.5% penicillin/streptomycin (10,000 units/10,000 units, Gibco).
5-flurorouracil (5-FU), all-trans retinoic acid (atRA), and penicillin G (PenG) were selected from a subset of chemicals used in the original EST validation study. 5-FU and atRA were selected as positive test compounds due to their established embryotoxic potential while PenG was used as a negative control. All chemicals were purchased from Sigma. Stock solutions were prepared in DMSO and filtered through a 0.2 micron Acrodisc® PSF Syringe Filter (Pall Corporation, Port Washington, NY, USA), aliquoted into sterile microcentrifuge tubes and stored at −20 °C until use. Test chemicals were serially diluted to final concentrations in differentiation media. Cardiogenic cultures were treated with designated chemicals (or solvent only) through day 25 of differentiation and hFF cultures were treated with each compound for a 25 day duration period. Compounds were replenished with each medium change.
Cardiomyocyte survival following concurrent exposure to each compound was evaluated by 3-[4,5-dimethylthiazol-2-yl]-2,5-diphenylterazolium bromide (MTT) assay from three independent differentiations each carried out in technical quintuplicate as previously described. On day 25 of differentiation, cells were incubated with MTT (5 mg/mL) for 2 h at 37 °C. MTT supernatant was removed and replaced with a desorb solution of 0.7% SDS in 2-propanol. The absorbance of the solution was measured at 570 nm in an iMark™ microplate reader (Bio-Rad) with 655 nm as a reference wavelength. Here, mitochondrial dehydrogenase activity on the MTT in solution is directly proportional to a blue-purple product that is detected at 570 nm.
as §3

[5] = 600 h, MTT, 25 day treatment, read-out: hFF IC50
[6] = fibroblast row of the hiPSC-EST in Table 1 (values equal hFF IC50 of Table 2), read-out: hiPSC 3T3 IC50

| Compound | mESCs 3T3 IC50 (3T3 fibroblast cells) | effect on MEF2c mRNA expression (MEF2c mRNA expression; day 10) | mESCs ID50 (mESCs [1]) | mESC Biostatistical Embryotoxicity Classification (mESCs [2]) | mESCs IC50 (mESCs [3]) | hiPSCs (d10 TBX5) ID50 (TBX5 mRNA expression) | hiPSC (day 25 cluster) Biostatistical Embryotoxicity Classification (hiPSC) | hiPSC (day 10 qPCR) Biostatistical Embryotoxicity Classification (hiPSC) | effect on hFF cell viability [4] | IC50 [4, 5] | IC50 [4, 6] | concentrations with reductions in hFF cell viability ([4]; MTT) | further results |
| --- | --- | --- | --- | --- | --- | --- | --- | --- | --- | --- | --- | --- | --- |
| CC1=C(/C=C/C(C)=C/C=C/C(C)=C/C(=O)O)C(C)(C)CCC1 [All-Trans Retinoic Acid, all-trans retinoic acid] | 2.7 µg/mL | dose-dependently downregulated | 0.0017 µg/mL | Strongly embryotoxic | 0.09 ng/mL | 3.28e-06 µg/mL | Strongly embryotoxic | Strongly embryotoxic | dose-dependent reduction in cell viability | 0.0125 µg/mL (≈ 0.0415 µM) | 0.0125 µg/mL (≈ 0.0416 µM) | > 10 ng/mL | doses with steady decline in MEF2c mRNA expression (MEF2c mRNA expression; day 10): above 1 × 10^−3 μg/mL; MEF2c mRNA ID50 (MEF2c mRNA expression; day 10 of differentiation): 0.04 µg/mL; concentrations with significant upregulation in TBX5 mRNA expression (TBX5 mRNA expression; day 10): lower than 1 × 10^−6 μg/mL; hFF IC50 ([4]; MTT, 25 day treatment): 0.0125 µg/mL; concentration with significant cell death in hFF ([4]; highest tested concentration): 1000 ng/mL |
| CC1(C)S[C@@H]2[C@H](NC(=O)Cc3ccccc3)C(=O)N2[C@H]1C(=O)O [Penicillin G, penicillin G] | 1000 µg/mL | remained largely unchanged | 750 µg/mL | Not embryotoxic | 800000 ng/mL | >1000 µg/mL | Not embryotoxic | Not embryotoxic |  | ~1430 µg/mL (≈ 4290 µM) | 1430 µg/mL (≈ 4290 µM) | ≥ 800000 ng/mL | effect on TBX5 mRNA expression (TBX5 mRNA expression; day 10): did not significantly impact TBX5 mRNA expression; hiPSC (day 25 cluster) Biostatistical Embryotoxicity Classification (hiPSC; listed as PenG): non-embryotoxic; hiPSC (day 10 qPCR) Biostatistical Embryotoxicity Classification (hiPSC; listed as PenG): non-embryotoxic |
| O=c1[nH]cc(F)c(=O)[nH]1 [5-Fluorouracil, 5-fluorouracil] | 0.05 µg/mL | No reductions in MEF2c mRNA expression | 0.0097 µg/mL | Strongly embryotoxic | 22 ng/mL | 0.000179 µg/mL | Strongly embryotoxic | Strongly embryotoxic | dose-dependent reduction in cell viability | 0.000808 µg/mL (≈ 0.00621 µM) | 0.00081 µg/mL (≈ 0.00623 µM) | > 0.1 ng/mL | concentrations with dramatically reduced d10 TBX5 mRNA expression (TBX5 mRNA expression; day 10): above 1 × 10^−4 μg/mL |
